This series is described as follows: molar enthalpy of vaporization or sublimation. To be noted: 298.15 K, Liquid.

Numbers after ± are expanded uncertainties.

On to `CC(=O)c1sccc1C` [2-acetyl-3-methylthiophene], for which the molar enthalpy (Vacuum sublimation drop method) is 13.6 ± 1.15 kcal/mol.
For `CC(=O)c1cc(C)cs1` [2-acetyl-4-methylthiophene], the molar enthalpy (Flow calorimetry) was 15.1 ± 1.24 kcal/mol.
Regarding `CC(=O)c1ccc(C)s1` [2-acetyl-5-methylthiophene], where the note is “Flow calorimetry”, the molar enthalpy stood at 14.8 ± 1.24 kcal/mol.

Values taken from the NIST ThermoML archive (doi:10.1016/j.jct.2008.03.008).
